Assays:
[1] = system: HT-29 (human colon cancer cells); assay: Inhibition of cancer cell proliferation assay (SRB); assay type: cell-based; conditions: mean ± SD, 72 hours
From the text: The cellular assay described here is to test the proliferation inhibition activity of the compound of Example 53 on the cancer cells in vitro using Sulforhodamine B (SRB) method. The cancer cells include HUVEC (human umbilical vein endothelial cells), HT-29 (human colon cancer cells), Mo7e (human megakaryoblastic leukemia cell line), A431 (human epidermoid carcinoma cells), NCI—H526 (small-cell lung cancer cells), and SK—BR-3 (human breast cancer cells).
HT-29 cancer cell: Cell Bank, Chinese Academy of Sciences, TCHu103;
The following in vitro assay is to determine the activity of the tested compound for inhibiting the proliferation of the cancer cells mentioned above. The activity is represented by the IC50 value. The general procedures of the assay are given as follows: Cancer cells mentioned above were chosen and seeded to 96-well cell culture plate at a suitable concentration (e.g., 5000 cells/mL medium). These cells then were incubated in carbon dioxide (CO2) incubator until they reached 85% confluency. […] 72 hours later, the activity of the tested compound for inhibiting the cell proliferation was determined by using Sulforhodamine B (SRB) method. IC50 value on tested cells is calculated by the data of inhibition rates of serial concentrations of the tested compound.

[2] = system: Calu-3(non-small cell lung cancer); assay: Anticancer pharmacodynamic assay in vivo, xenograft; parameters: species or system nude mice; conditions: for T/C (%): relative tumor volume (%) / Note: PR (partial regression), animals: Calu-3 xenograft, d0-20; for Note: PR (partial regression), animals: treatment group n = 6
From the text: (§1) The test method and steps are the same with those disclosed in “PHARMACODYNAMIC ASSAYS IN VIVO” of the present invention. The therapeutic effects of the compound of Example 53 against xenografts of colon cancer, non-small cell lung cancer, liver cancer, melanoma, renal cancer in nude mice are estimated.
Calu-3(non-small cell lung cancer): Cell Bank, Chinese Academy of Sciences, TCHu157;
(§2) Nude mice were hypodermic inoculated HT-29 human colon cancer cell. After tumors grew to 100-300 mm^3, mice were randomly divided into teams (d0). The volume of tumors and weigh of the mice were measured for 2-3 times per week. The calculation formula of the volume of tumor (V) is: V=½×a×b^2, a: length of tumor, b: width of tumor.

Bel-7402(liver cancer) = assay: as above; parameters: species or system nude mice; conditions: for T/C (%): relative tumor volume (%): Bel-7402 xenograft
From the text: as §1
Bel-7402(liver cancer): Cell Bank, Chinese Academy of Sciences, TCHu10;
as §2

Flt1 = molecular target: T1, Flt1 (Homo sapiens, UniProt P17948); assay: Inhibition of receptor tyrosine kinases activity assay; assay type: biochemical
T1 construct: purchased invitrogen PV3666

[3] = system: SK—BR-3 (human breast cancer cells); assay: Inhibition of cancer cell proliferation assay (SRB); assay type: cell-based; conditions: SK-BR-3, 72 h, read-out: IC50 SK-BR-3
From the text: (§3) The cancer cells include HUVEC (human umbilical vein endothelial cells), HT-29 (human colon cancer cells), Mo7e (human megakaryoblastic leukemia cell line), A431 (human epidermoid carcinoma cells), NCI—H526 (small-cell lung cancer cells), and SK—BR-3 (human breast cancer cells).
(§4) The following in vitro assay is to determine the activity of the tested compound for inhibiting the proliferation of the cancer cells mentioned above. The activity is represented by the IC50 value. The general procedures of the assay are given as follows: Cancer cells mentioned above were chosen and seeded to 96-well cell culture plate at a suitable concentration (e.g., 5000 cells/mL medium). […] Then, the cell culture medium was replaced by fresh one with tested compound added in it at serial concentrations (general 6 to 7 concentrations). Then the cells were put back to the incubator and cultured continuously. 72 hours later, the activity of the tested compound for inhibiting the cell proliferation was determined by using Sulforhodamine B (SRB) method. IC50 value on tested cells is calculated by the data of inhibition rates of serial concentrations of the tested compound.

[4] = system: NCI—H526 (small-cell lung cancer cells); assay: as above; assay type: cell-based; conditions: Homo sapiens, NCI-H526, 72 h, read-out: IC50 NCI-H526
From the text: as §3, §4

[5] = system: A431 (human epidermoid carcinoma cells); assay: as above; assay type: cell-based; conditions: A-431, 72 h, read-out: IC50 A431
From the text: as §3, §4

T1 sequence (P17948 27-1338): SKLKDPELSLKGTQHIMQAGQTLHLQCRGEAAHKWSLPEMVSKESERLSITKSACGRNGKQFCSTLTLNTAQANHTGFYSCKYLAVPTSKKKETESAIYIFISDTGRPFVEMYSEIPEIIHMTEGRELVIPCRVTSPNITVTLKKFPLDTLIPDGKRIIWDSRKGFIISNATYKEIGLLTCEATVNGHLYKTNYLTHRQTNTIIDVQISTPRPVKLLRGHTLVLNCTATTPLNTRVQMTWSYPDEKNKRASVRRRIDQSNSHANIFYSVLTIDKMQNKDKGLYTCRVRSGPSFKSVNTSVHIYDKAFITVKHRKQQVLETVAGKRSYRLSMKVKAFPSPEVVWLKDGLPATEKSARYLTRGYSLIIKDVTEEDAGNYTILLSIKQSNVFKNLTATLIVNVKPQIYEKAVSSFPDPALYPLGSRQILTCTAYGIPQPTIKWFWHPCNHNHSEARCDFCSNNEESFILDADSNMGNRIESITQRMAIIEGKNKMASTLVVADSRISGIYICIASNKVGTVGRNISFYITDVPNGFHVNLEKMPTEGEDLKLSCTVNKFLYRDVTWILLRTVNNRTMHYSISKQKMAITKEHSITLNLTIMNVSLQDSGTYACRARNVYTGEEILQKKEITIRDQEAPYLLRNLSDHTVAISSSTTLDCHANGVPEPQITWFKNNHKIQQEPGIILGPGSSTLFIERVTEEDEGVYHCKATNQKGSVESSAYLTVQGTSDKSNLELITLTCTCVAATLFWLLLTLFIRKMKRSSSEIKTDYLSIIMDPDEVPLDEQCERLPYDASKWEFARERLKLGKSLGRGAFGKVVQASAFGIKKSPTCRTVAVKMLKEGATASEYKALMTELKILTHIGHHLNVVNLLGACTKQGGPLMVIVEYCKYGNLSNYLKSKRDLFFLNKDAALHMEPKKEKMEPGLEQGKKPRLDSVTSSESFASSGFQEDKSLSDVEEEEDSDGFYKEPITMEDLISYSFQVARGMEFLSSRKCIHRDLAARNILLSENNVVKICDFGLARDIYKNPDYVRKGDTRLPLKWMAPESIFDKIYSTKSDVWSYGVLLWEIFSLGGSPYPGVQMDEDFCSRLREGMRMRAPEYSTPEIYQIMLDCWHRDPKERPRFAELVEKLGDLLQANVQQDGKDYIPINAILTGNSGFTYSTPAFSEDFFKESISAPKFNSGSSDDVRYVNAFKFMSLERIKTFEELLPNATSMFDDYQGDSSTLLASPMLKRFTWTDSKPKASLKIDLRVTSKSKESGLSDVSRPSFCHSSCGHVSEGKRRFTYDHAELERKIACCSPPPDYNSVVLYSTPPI

Structure (SMILES): Cc1c(/C=C2\C(=O)Nc3ccc(F)cc32)[nH]c2c1C(=O)N(C[C@H](O)CN1CCOCC1)CCC2 [Example 53, (R,Z)-2-(5-Fluoro-2-oxo-1,2-dihydro-indol-3-ylidenemethyl)-5-(2-hydroxy-3-morpholin-4-yl-propyl)-3-methyl-5,6,7,8-tetrahydro-1H-pyrrolo[3,2-c]azepin-4-one]
- IC50 [1]: 2400 ± 1600 nM
- anticancer activity against xenograft (in words) ([2]; Calu-3 xenograft in nude mice): obvious anticancer activity
- T/C (%): relative tumor volume (%) ([2]; 15 mg/kg p.o): 26.3%
- T/C (%): relative tumor volume (%) ([2]; 30 mg/kg p.o): 14.7%
- Note: PR (partial regression), animals ([2]; 30 mg/kg p.o): 3/6(PR)
- T/C (%): relative tumor volume (%) ([2]; 60 mg/kg p.o): 16.1%
- Note: PR (partial regression), animals ([2]; 60 mg/kg p.o): 3/6(PR)
- anticancer activity against xenograft (in words) (Bel-7402(liver cancer); Bel-7402 xenograft in nude mice): obvious anticancer activity
- T/C (%): relative tumor volume (%) (Bel-7402(liver cancer); 15 mg/kg p.o d0-17): 39.8%
- T/C (%): relative tumor volume (%) (Bel-7402(liver cancer); 30 mg/kg p.o d0-17): 29.2%
- T/C (%): relative tumor volume (%) (Bel-7402(liver cancer); 60 mg/kg p.o d0-17): 13.3%
- inhibition of kinase activity (in words) (Flt1; Flt1): obvious activity
- IC50 (Flt1; mean ± SD, 20 μM ATP, 25° C., 45 minutes): 30.9 ± 5.7 nM
- IC50 [3]: 7.8 ± 1.5 µM
- IC50 [4]: 8.3 ± 0.3 µM
- IC50 [5]: 2000 ± 500 nM

Source: patent US20130303518A1, “Methods of Inhibiting the Catalytic Activity of a Protein Kinase and of Treating a Protein Kinase Related Disorder” (JIANGSU HANSOH PHARMACEUTICAL CO., LTD., priority 2007, published 2013)
